One block for each compound: values may come before it.
What was measured:
Staphylococcus aureus = assay: standard microtiter assay, minimum inhibitory concentration; type: cell-based; conditions: for minimum inhibitory concentration of antibiotic, Test Organism 1: Test Organism 1, strain of Staphylococcus aureus; for minimum inhibitory concentration of antibiotic, Test Organism 2: Test Organism 2, strain of Staphylococcus aureus; for minimum inhibitory concentration of antibiotic, Test Organism 3: Test Organism 3, strain of Staphylococcus aureus; for minimum inhibitory concentration of antibiotic, Test Organism 4: Test Organism 4, strain of Staphylococcus aureus; for minimum inhibitory concentration of antibiotic, Test Organism 5: Test Organism 5, strain of Staphylococcus aureus
Text: (§1) Representative results of standard microtiter assays are reported in Table 1 which follows, as the minimum inhibitory concentration of antibiotic (mg/ml). In Table 1, test organisms 1-5 were different strains of Staphylococcus aureus; 6, 8, 11, 13 and 14 were different strains of Staphylococcus epidermidis; 7 was a Staphylococcus haemolyticus; 9 and 10 were different strains of Streptococcus faecalis; and 12 was a Staphylococcus saprophyticus.

[1] = test system: Staphylococcus haemolyticus; assay: as above; type: cell-based; conditions: Test Organism 7, Staphylococcus haemolyticus
Text: as §1

[2] = test system: Staphylococcus saprophyticus; assay: as above; type: cell-based; conditions: Test Organism 12, Staphylococcus saprophyticus
Text: as §1

Streptococcus faecalis = assay: as above; type: cell-based; conditions: for minimum inhibitory concentration of antibiotic, Test Organism 9: Test Organism 9, strain of Streptococcus faecalis; for minimum inhibitory concentration of antibiotic, Test Organism 10: Test Organism 10, strain of Streptococcus faecalis
Text: as §1

[3] = test system: Staphylococcus epidermidis; assay: as above; type: cell-based; set-up: minimum inhibitory concentration of antibiotic, Test Organism 8: unit not given here; conditions: for minimum inhibitory concentration of antibiotic, Test Organism 6: Test Organism 6, strain of Staphylococcus epidermidis; for minimum inhibitory concentration of antibiotic, Test Organism 8: Test Organism 8, strain of Staphylococcus epidermidis; for minimum inhibitory concentration of antibiotic, Test Organism 11: Test Organism 11, strain of Staphylococcus epidermidis; for minimum inhibitory concentration of antibiotic, Test Organism 13: Test Organism 13, strain of Staphylococcus epidermidis; for minimum inhibitory concentration of antibiotic, Test Organism 14: Test Organism 14, strain of Staphylococcus epidermidis
Text: as §1

[4] = pI (analytical data, Table 2); type: physicochemical
Text: Using substantially the procedures of both Examples 1 and 2, the compounds of Examples 3-15 were obtained by using the appropriate glycopeptide and amine starting materials.

Structure (SMILES): CNC1C(=O)NC2C(=O)NC(C(=O)NC3C(=O)NC4C(=O)NC(C(=O)NC(C(=O)NCCN(C)C)c5cc(O)cc(O)c5-c5cc4ccc5O)C(O)c4cc(Cl)c(c(Cl)c4)Oc4cc3cc(c4O)Oc3ccc(cc3Cl)C2O)c2cc(cc(O)c2Cl)Oc2cc1ccc2O (stereo not shown) [Compound 2g, Ardacin aglycone-(2-N,Ndimethylaminoethyl amide)]
minimum inhibitory concentration of antibiotic, Test Organism 1 (Staphylococcus aureus): 200 µg/mL | minimum inhibitory concentration of antibiotic, Test Organism 2 (Staphylococcus aureus): 100 µg/mL | minimum inhibitory concentration of antibiotic, Test Organism 3 (Staphylococcus aureus): 200 µg/mL | minimum inhibitory concentration of antibiotic, Test Organism 4 (Staphylococcus aureus): 400 µg/mL | minimum inhibitory concentration of antibiotic, Test Organism 5 (Staphylococcus aureus): 100 µg/mL | minimum inhibitory concentration of antibiotic, Test Organism 7 [1]: 200 µg/mL | minimum inhibitory concentration of antibiotic, Test Organism 12 [2]: 100 µg/mL | minimum inhibitory concentration of antibiotic, Test Organism 9 (Streptococcus faecalis): 100 µg/mL | minimum inhibitory concentration of antibiotic, Test Organism 10 (Streptococcus faecalis): 200 µg/mL | minimum inhibitory concentration of antibiotic, Test Organism 6 [3]: 200 µg/mL | minimum inhibitory concentration of antibiotic, Test Organism 8 [3]: 0.2 | minimum inhibitory concentration of antibiotic, Test Organism 11 [3]: 200 µg/mL | minimum inhibitory concentration of antibiotic, Test Organism 13 [3]: 50 µg/mL | minimum inhibitory concentration of antibiotic, Test Organism 14 [3]: 50 µg/mL | pI [4]: 7.7

Structure (SMILES): CNC1C(=O)NC2C(=O)NC(C(=O)NC3C(=O)NC4C(=O)NC(C(=O)NC(C(=O)NCCO)c5cc(O)cc(O)c5-c5cc4ccc5O)C(O)c4cc(Cl)c(c(Cl)c4)Oc4cc3cc(c4O)Oc3ccc(cc3Cl)C2O)c2cc(cc(O)c2Cl)Oc2cc1ccc2O (stereo not shown) [Compound 2d, Ardacin aglycone-(2-hydroxyethyl amide)]
minimum inhibitory concentration of antibiotic, Test Organism 1 (Staphylococcus aureus): 50 µg/mL | minimum inhibitory concentration of antibiotic, Test Organism 2 (Staphylococcus aureus): 50 µg/mL | minimum inhibitory concentration of antibiotic, Test Organism 3 (Staphylococcus aureus): 50 µg/mL | minimum inhibitory concentration of antibiotic, Test Organism 4 (Staphylococcus aureus): 200 µg/mL | minimum inhibitory concentration of antibiotic, Test Organism 5 (Staphylococcus aureus): 200 µg/mL | minimum inhibitory concentration of antibiotic, Test Organism 7 [1]: 800 µg/mL | minimum inhibitory concentration of antibiotic, Test Organism 12 [2]: 400 µg/mL | minimum inhibitory concentration of antibiotic, Test Organism 9 (Streptococcus faecalis): 200 µg/mL | minimum inhibitory concentration of antibiotic, Test Organism 6 [3]: 400 µg/mL | minimum inhibitory concentration of antibiotic, Test Organism 11 [3]: 800 µg/mL | minimum inhibitory concentration of antibiotic, Test Organism 13 [3]: 200 µg/mL | minimum inhibitory concentration of antibiotic, Test Organism 14 [3]: 400 µg/mL | pI [4]: 7.1

Structure (SMILES): CNCCNC(=O)C1NC(=O)C2NC(=O)C(NC(=O)C3NC(=O)C4NC(=O)C(NC(=O)C(NC)c5ccc(O)c(c5)Oc5cc(O)c(Cl)c4c5)C(O)c4ccc(c(Cl)c4)Oc4cc3cc(c4O)Oc3c(Cl)cc(cc3Cl)C2O)c2ccc(O)c(c2)-c2c(O)cc(O)cc21 (stereo not shown) [Compound 2f, Ardacin aglycone-(2-Nmethylaminoethyl amide)]
minimum inhibitory concentration of antibiotic, Test Organism 1 (Staphylococcus aureus): 200 µg/mL | minimum inhibitory concentration of antibiotic, Test Organism 2 (Staphylococcus aureus): 200 µg/mL | minimum inhibitory concentration of antibiotic, Test Organism 3 (Staphylococcus aureus): 100 µg/mL | minimum inhibitory concentration of antibiotic, Test Organism 4 (Staphylococcus aureus): 200 µg/mL | minimum inhibitory concentration of antibiotic, Test Organism 5 (Staphylococcus aureus): 100 µg/mL | minimum inhibitory concentration of antibiotic, Test Organism 7 [1]: 200 µg/mL | minimum inhibitory concentration of antibiotic, Test Organism 12 [2]: 100 µg/mL | minimum inhibitory concentration of antibiotic, Test Organism 9 (Streptococcus faecalis): 100 µg/mL | minimum inhibitory concentration of antibiotic, Test Organism 10 (Streptococcus faecalis): 100 µg/mL | minimum inhibitory concentration of antibiotic, Test Organism 6 [3]: 200 µg/mL | minimum inhibitory concentration of antibiotic, Test Organism 8 [3]: 0.1 | minimum inhibitory concentration of antibiotic, Test Organism 11 [3]: 100 µg/mL | minimum inhibitory concentration of antibiotic, Test Organism 13 [3]: 50 µg/mL | minimum inhibitory concentration of antibiotic, Test Organism 14 [3]: 100 µg/mL | pI [4]: 7.7

The next lines start with results.

pI [4]: 7.2
Structure (SMILES): CCCCCCCCCC(=O)NC1C(Oc2c3cc4cc2Oc2c(Cl)cc(cc2Cl)C(O)C2NC(=O)C(NC(=O)C4NC(=O)C4NC(=O)C(NC(=O)C(NC)c5ccc(O)c(c5)Oc5cc(O)c(Cl)c4c5)C(O)c4ccc(c(Cl)c4)O3)c3ccc(O)c(c3)-c3c(OC4OC(CO)C(O)C(O)C4O)cc(O)cc3C(C(N)=O)NC2=O)OC(C(N)=O)C(O)C1O (stereo not shown) [Compound 2j, Ardacin A diamide]
minimum inhibitory concentration of antibiotic, Test Organism 1 (Staphylococcus aureus): 800 µg/mL | minimum inhibitory concentration of antibiotic, Test Organism 2 (Staphylococcus aureus): 1600 µg/mL | minimum inhibitory concentration of antibiotic, Test Organism 3 (Staphylococcus aureus): 800 µg/mL | minimum inhibitory concentration of antibiotic, Test Organism 4 (Staphylococcus aureus): 3100 µg/mL | minimum inhibitory concentration of antibiotic, Test Organism 5 (Staphylococcus aureus): 1600 µg/mL | minimum inhibitory concentration of antibiotic, Test Organism 7 [1]: 3100 µg/mL | minimum inhibitory concentration of antibiotic, Test Organism 12 [2]: 3100 µg/mL | minimum inhibitory concentration of antibiotic, Test Organism 9 (Streptococcus faecalis): 200 µg/mL | minimum inhibitory concentration of antibiotic, Test Organism 10 (Streptococcus faecalis): 100 µg/mL | minimum inhibitory concentration of antibiotic, Test Organism 6 [3]: 6300 µg/mL | minimum inhibitory concentration of antibiotic, Test Organism 8 [3]: 6.3 | minimum inhibitory concentration of antibiotic, Test Organism 11 [3]: 6300 µg/mL | minimum inhibitory concentration of antibiotic, Test Organism 13 [3]: 3100 µg/mL | minimum inhibitory concentration of antibiotic, Test Organism 14 [3]: 800 µg/mL

pI [4]: 8.4
Structure (SMILES): CCCCCCCCCC(=O)NC1C(Oc2c3cc4cc2Oc2c(Cl)cc(cc2Cl)C(O)C2NC(=O)C(NC(=O)C4NC(=O)C4NC(=O)C(NC(=O)C(NC)c5ccc(O)c(c5)Oc5cc(O)c(Cl)c4c5)C(O)c4ccc(c(Cl)c4)O3)c3ccc(O)c(c3)-c3c(OC4OC(CO)C(O)C(O)C4O)cc(O)cc3C(C(=O)NCCN)NC2=O)OC(C(=O)NCCN)C(O)C1O (stereo not shown) [Compound 2m, Ardacin A-di-(2-aminoethylamide)]
minimum inhibitory concentration of antibiotic, Test Organism 1 (Staphylococcus aureus): 100 µg/mL | minimum inhibitory concentration of antibiotic, Test Organism 2 (Staphylococcus aureus): 100 µg/mL | minimum inhibitory concentration of antibiotic, Test Organism 3 (Staphylococcus aureus): 100 µg/mL | minimum inhibitory concentration of antibiotic, Test Organism 4 (Staphylococcus aureus): 800 µg/mL | minimum inhibitory concentration of antibiotic, Test Organism 5 (Staphylococcus aureus): 400 µg/mL | minimum inhibitory concentration of antibiotic, Test Organism 7 [1]: 800 µg/mL | minimum inhibitory concentration of antibiotic, Test Organism 12 [2]: 400 µg/mL | minimum inhibitory concentration of antibiotic, Test Organism 9 (Streptococcus faecalis): 100 µg/mL | minimum inhibitory concentration of antibiotic, Test Organism 10 (Streptococcus faecalis): 100 µg/mL | minimum inhibitory concentration of antibiotic, Test Organism 6 [3]: 1600 µg/mL | minimum inhibitory concentration of antibiotic, Test Organism 8 [3]: 0.1 | minimum inhibitory concentration of antibiotic, Test Organism 11 [3]: 800 µg/mL | minimum inhibitory concentration of antibiotic, Test Organism 13 [3]: 200 µg/mL

pI [4]: 7.1
Structure (SMILES): CNC1C(=O)NC2C(=O)NC(C(=O)NC3C(=O)NC4C(=O)NC(C(=O)NC(C(N)=O)c5cc(O)cc(OC6OC(CO)C(O)C(O)C6O)c5-c5cc4ccc5O)C(O)c4cc(Cl)c(c(Cl)c4)Oc4cc3cc(c4O)Oc3ccc(cc3Cl)C2O)c2cc(cc(O)c2Cl)Oc2cc1ccc2O (stereo not shown) [Compound 2n, Ardacin mannosylaglycone amide]
minimum inhibitory concentration of antibiotic, Test Organism 1 (Staphylococcus aureus): 200 µg/mL | minimum inhibitory concentration of antibiotic, Test Organism 2 (Staphylococcus aureus): 800 µg/mL | minimum inhibitory concentration of antibiotic, Test Organism 3 (Staphylococcus aureus): 100 µg/mL | minimum inhibitory concentration of antibiotic, Test Organism 4 (Staphylococcus aureus): 3100 µg/mL | minimum inhibitory concentration of antibiotic, Test Organism 5 (Staphylococcus aureus): 400 µg/mL | minimum inhibitory concentration of antibiotic, Test Organism 7 [1]: 1600 µg/mL | minimum inhibitory concentration of antibiotic, Test Organism 12 [2]: 1600 µg/mL | minimum inhibitory concentration of antibiotic, Test Organism 9 (Streptococcus faecalis): 200 µg/mL | minimum inhibitory concentration of antibiotic, Test Organism 6 [3]: 1600 µg/mL | minimum inhibitory concentration of antibiotic, Test Organism 11 [3]: 6300 µg/mL | minimum inhibitory concentration of antibiotic, Test Organism 13 [3]: 1600 µg/mL | minimum inhibitory concentration of antibiotic, Test Organism 14 [3]: 1600 µg/mL
